The results in this text go back to patent publication US20110217293A1, “Uses of morelloflavone” (priority 2008, published 2011).

Entries after “also recorded” stand apart in the source; their conditions may differ.

The experiment concerns vascular smooth muscle cells. Briefly: Scratch wound cell migration assay. The experiment is classed as cell-based, mouse. The settings on record: for migration index: 18 hrs. Here is the method: Mouse vascular smooth muscle cells, isolated as described (13), were maintained in 231 media (Cascade Biologics, Portland, Oreg.) supplemented with SMGS (Cascade Biologics) in a humidified incubator at 37° C. with 5% CO2. Cells from passages 4-9 were used in all experiments. All experiments were performed in subconfluent, unsynchronized cells growing in SMGS except for the lamellipodium formation assay.
Vascular smooth muscle cells that had been grown to confluence in 6-well culture plates were scratched with a sterile […] pipette tip and exposed to various concentrations of morelloflavone. The cells were allowed to migrate onto the plastic surface for 18 hrs and photographed. A migration index was determined based on the number of cells that migrated onto 1 mm^2 free plastic surface, using the Image J software (NIH).

As for `O=C1c2c(O)cc(O)cc2O[C@H](c2ccc(O)cc2)[C@H]1c1c(O)cc(O)c2c(=O)cc(-c3ccc(O)c(O)c3)oc12` [morelloflavone, 5,7, 4′, 5″, 7″, 3″, 4″-heptahydroxy-[3,8″]-flavonylflavanone], the “effect on vascular smooth muscle cell migration” value (0-100 mM, effect from 1 mM (1 μM)) was “inhibited in a dose-dependent fashion; also recorded: profound effects on migration; also recorded: blocks”. Moreover, the migration index reads like this: (1 mM morelloflavone) 487.6±36.9 cells/mm^2; (10 mM morelloflavone) 411.3±39.5 cells/mm^2; (100 mM morelloflavone) 191.86±32.8 cells/mm^2.
